Assays:
[1] = biological target: T1, BCR-KIT BaF3 cells (Homo sapiens, UniProt P10721); assay: BaF3 BCR-KIT cell proliferation assay (ATPlite); type: cell-based; details: read-out: Inhibition of Cell Proliferation IC50, BCR/BaF3 Kit
T1 construct: fused on or other part: P11274 (Breakpoint cluster region protein)
In short: (§1)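 Cells are plated overnight: BaF3 at 10,000/well in G418 medium without WEHI/IL-3, MV-4-11 at 25,000/well in IMDM with 10% FBS. An 8-point 1:3 compound titration (10 μM top) is then added, and plates are incubated 3 days at 37 °C before ATPlite readout and IC50 determination.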

[2] = biological target: T2, BCR-NTRK1 BaF3 cells (Homo sapiens, UniProt P04629); assay: BaF3 BCR-NTRK1 cell proliferation assay (ATPlite); type: cell-based; details: read-out: Inhibition of Cell Proliferation IC50, BCR/BaF3 TrkA
T2 construct: fused on or other part: P11274 (Breakpoint cluster region protein)
In short: as §1

T1 sequence (P10721 589-937): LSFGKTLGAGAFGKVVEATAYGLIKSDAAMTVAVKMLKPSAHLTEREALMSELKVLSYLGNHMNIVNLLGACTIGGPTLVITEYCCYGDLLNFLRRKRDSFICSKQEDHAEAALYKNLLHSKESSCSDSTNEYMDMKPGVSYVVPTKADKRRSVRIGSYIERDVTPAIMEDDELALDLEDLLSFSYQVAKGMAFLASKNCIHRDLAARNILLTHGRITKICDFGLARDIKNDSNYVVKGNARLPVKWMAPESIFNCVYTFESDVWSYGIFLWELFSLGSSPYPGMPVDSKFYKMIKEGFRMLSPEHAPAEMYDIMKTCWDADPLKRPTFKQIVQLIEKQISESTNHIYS
T2 sequence (P04629 510-781): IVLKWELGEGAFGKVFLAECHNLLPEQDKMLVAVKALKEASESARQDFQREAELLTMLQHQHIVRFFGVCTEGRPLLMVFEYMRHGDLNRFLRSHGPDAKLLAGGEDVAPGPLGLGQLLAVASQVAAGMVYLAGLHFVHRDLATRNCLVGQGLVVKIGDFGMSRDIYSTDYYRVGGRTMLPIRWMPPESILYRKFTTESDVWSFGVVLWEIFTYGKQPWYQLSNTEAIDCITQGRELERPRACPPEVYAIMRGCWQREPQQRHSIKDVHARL

IC50 [1] [nM]	IC50 [2] [nM]	SMILES
< 1000	< 1000	CCn1ccc(Nc2ncc(Cc3c[nH]c4ncc(C)cc34)cn2)n1 [Compound P-3035, (1-Ethyl-1H-pyrazol-3-yl)-[5-(5-methyl-1H-pyrrolo[2,3-b]pyridin-3-ylmethyl)-pyrimidin-2-yl]-amine]
< 100	< 1000	CCn1cc(Nc2ncc(Cc3c[nH]c4ncc(C)cc34)cn2)cn1 [Compound P-3036, (1-Ethyl-1H-pyrazol-4-yl)-[5-(5-methyl-1H-pyrrolo[2,3-b]pyridin-3-ylmethyl)-pyrimidin-2-yl]-amine]
> 1000	> 1000	Cc1cnc2[nH]cc(Cc3cnc(Nc4cc(C(F)(F)F)n[nH]4)nc3)c2c1 [Compound P-3037, [5-(5-Methyl-1H-pyrrolo[2,3-b]pyridin-3-ylmethyl)-pyrimidin-2-yl]-(5-trifluoromethyl-2H-pyrazol-3-yl)-amine]
< 1000	< 1000	Cc1cnc2[nH]cc(Cc3cnc(Nc4cc(OC(C)C)n[nH]4)nc3)c2c1 [Compound P-3038, (5-Isopropoxy-2H-pyrazol-3-yl)-[5-(5-methyl-1H-pyrrolo[2,3-b]pyridin-3-ylmethyl)-pyrimidin-2-yl]-amine]
< 1000	< 1000	CCOc1ccc(Nc2ccc(Cc3c[nH]c4ncc(C)cc34)c(F)n2)cn1 [Compound P-3039, (6-ethoxy-pyridin-3-yl)-[6-fluoro-5-(5-methyl-1H-pyrrolo[2,3-b]pyridin-3-ylmethyl)-pyridin-2-yl]-amine]
> 1000	< 100	COc1ccc(Nc2ccc(C(=O)c3c[nH]c4ncc(C)cc34)c(F)n2)cn1 [Compound P-3040, [2-Fluoro-6-(6-methoxy-pyridin-3-ylamino)-pyridin-3-yl]-(5-methyl-1H-pyrrolo[2,3-b]pyridin-3-yl)-methanone]
< 1000	< 1000	Cc1cnc2[nH]cc(Cc3ccc(Nc4ccc(C)nc4)nc3F)c2c1 [Compound P-3041, [6-Fluoro-5-(5-methyl-1H-pyrrolo[2,3-b]pyridin-3-ylmethyl)-pyridin-2-yl]-(6-methyl-pyridin-3-yl)-amine]
< 1000	< 1000	Cc1ccc(Nc2ccc(Cc3c[nH]c4ncc(Cl)cc34)c(F)n2)cn1 [Compound P-3042, [5-(5-Chloro-1H-pyrrolo[2,3-b]pyridin-3-ylmethyl)-6-fluoro-pyridin-2-yl]-(6-methyl-pyridin-3-yl)-amine]
< 1000	< 100	Cc1cnc2[nH]cc(C(=O)c3ccc(Nc4ccc(C)nc4)nc3F)c2c1 [Compound P-3043, [2-Fluoro-6-(6-methyl-pyridin-3-ylamino)-pyridin-3-yl]-(5-methyl-1H-pyrrolo[2,3-b]pyridin-3-yl)-methanone]
< 1000	< 1000	Cc1ccc(Nc2ccc(C(=O)c3c[nH]c4ncc(Cl)cc34)c(F)n2)cn1 [Compound P-3044, (5-Chloro-1H-pyrrolo[2,3-b]pyridin-3-yl)-[2-fluoro-6-(6-methyl-pyridin-3-ylamino)-pyridin-3-yl]-methanone]
< 1000	< 100	CCOc1ccc(Nc2ccc(C(=O)c3c[nH]c4ncc(C)cc34)c(F)n2)cn1 [Compound P-3045, [6-(6-ethoxy-pyridin-3-ylamino)-2-fluoro-pyridin-3-yl]-(5-methyl-1H-pyrrolo[2,3-b]pyridin-3-yl)-methanone]
< 100	< 100	CCc1ccc(Nc2ccc(Cc3c[nH]c4ncc(C)cc34)c(F)n2)cn1 [Compound P-3048, (6-Ethyl-pyridin-3-yl)-[6-fluoro-5-(5-methyl-1H-pyrrolo[2,3-b]pyridin-3-ylmethyl)-pyridin-2-yl]-amine]
< 100	< 10	CCc1ccc(Nc2ccc(C(=O)c3c[nH]c4ncc(C)cc34)c(F)n2)cn1 [Compound P-3049, [6-(6-Ethyl-pyridin-3-ylamino)-2-fluoro-pyridin-3-yl]-(5-methyl-1H-pyrrolo[2,3-b]pyridin-3-yl)-methanone]
< 1000	< 100	Cc1cnc2[nH]cc(Cc3ccc(Nc4ccc(C5CC5)nc4)nc3F)c2c1 [Compound P-3050, (6-Cyclopropyl-pyridin-3-yl)-[6-fluoro-5-(5-methyl-1H-pyrrolo[2,3-b]pyridin-3-ylmethyl)-pyridin-2-yl]-amine]
< 1000	< 100	Cc1cnc2[nH]cc(C(=O)c3ccc(Nc4ccc(C5CC5)nc4)nc3F)c2c1 [Compound P-3051, [6-(6-Cyclopropyl-pyridin-3-ylamino)-2-fluoro-pyridin-3-yl]-(5-methyl-1H-pyrrolo[2,3-b]pyridin-3-yl)-methanone]
< 1000	< 100	COc1ccc(Nc2ccc(Cc3c[nH]c4ncnc(OC)c34)c(F)n2)cn1 [Compound P-4001, [6-Fluoro-5-(4-methoxy-7H-pyrrolo[2,3-d]pyrimidin-5-ylmethyl)-pyridin-2-yl]-(6-methoxy-pyridin-3-yl)-amine]

IC50 [1] [nM]	IC50 [2] [nM]	SMILES
< 1000	< 1000	COc1ccc(Nc2ccc(Cc3c[nH]c4ncnc(C)c34)c(F)n2)cn1 [Compound P-4002, [6-Fluoro-5-(4-methyl-7H-pyrrolo[2,3-d]pyrimidin-5-ylmethyl)-pyridin-2-yl]-(6-methoxy-pyridin-3-yl)-amine]
> 1000	< 1000	COc1ncnc2[nH]cc(Cc3ccc(Nc4ccc(Cl)nc4)nc3F)c12 [Compound P-4003, (6-Chloro-pyridin-3-yl)-[6-fluoro-5-(4-methoxy-7H-pyrrolo[2,3-d]pyrimidin-5-ylmethyl)-pyridin-2-yl]-amine]
< 100	< 10	COc1ncnc2[nH]cc(Cc3ccc(Nc4ccc(C5CC5)nc4)nc3F)c12 [Compound P-4004, (6-Cyclopropyl-pyridin-3-yl)-[6-fluoro-5-(4-methoxy-7H-pyrrolo[2,3-d]pyrimidin-5-ylmethyl)-pyridin-2-yl]-amine]
< 100	< 100	CCOc1ccc(Nc2ccc(Cc3c[nH]c4ncnc(OC)c34)c(F)n2)cn1 [Compound P-4005, (6-Ethoxy-pyridin-3-yl)-[6-fluoro-5-(4-methoxy-7H-pyrrolo[2,3-d]pyrimidin-5-ylmethyl)-pyridin-2-yl]-amine]
< 100	< 100	CCOc1ccc(Nc2ccc(Cc3c[nH]c4ncnc(C)c34)c(F)n2)cn1 [Compound P-4006, (6-Ethoxy-pyridin-3-yl)-[6-fluoro-5-(4-methyl-7H-pyrrolo[2,3-d]pyrimidin-5-ylmethyl)-pyridin-2-yl]-amine]
< 1000	< 10	CCc1ccc(Nc2ccc(Cc3c[nH]c4ncnc(OC)c34)c(F)n2)cn1 [Compound P-4007, (6-Ethyl-pyridin-3-yl)-[6-fluoro-5-(4-methoxy-7H-pyrrolo[2,3-d]pyrimidin-5-ylmethyl)-pyridin-2-yl]-amine]
< 1000	< 100	CCOc1ccc(Nc2ccc(Cc3c[nH]c4ncnc(OCCOC)c34)c(F)n2)cn1 [Compound P-4008, (6-Ethoxy-pyridin-3-yl)-{6-fluoro-5-[4-(2-methoxy-ethoxy)-7H-pyrrolo[2,3-d]pyrimidin-5-ylmethyl]-pyridin-2-yl}-amine]
< 1000	< 100	CCc1ccc(Nc2ccc(Cc3c[nH]c4ncnc(C)c34)c(F)n2)cn1 [Compound P-4009, (6-Ethyl-pyridin-3-yl)-[6-fluoro-5-(4-methyl-7H-pyrrolo[2,3-d]pyrimidin-5-ylmethyl)-pyridin-2-yl]-amine]
< 1000	< 1000	COc1ncnc2[nH]cc(Cc3ccc(Nc4ccc(C)nc4)nc3F)c12 [Compound P-4010, [6-Fluoro-5-(4-methoxy-7H-pyrrolo[2,3-d]pyrimidin-5-ylmethyl)-pyridin-2-yl]-(6-methyl-pyridin-3-yl)-amine]
> 1000	< 1000	CCn1cc(Nc2ccc(Cc3c[nH]c4ncnc(OC)c34)c(F)n2)cn1 [Compound P-4011, (1-Ethyl-1H-pyrazol-4-yl)-[6-fluoro-5-(4-methoxy-7H-pyrrolo[2,3-d]pyrimidin-5-ylmethyl)-pyridin-2-yl]-amine]
< 1000	< 1000	CCOc1ncnc2[nH]cc(Cc3ccc(Nc4cnn(CC)c4)nc3F)c12 [Compound P-4012, [5-(4-Ethoxy-7H-pyrrolo[2,3-d]pyrimidin-5-ylmethyl)-6-fluoro-pyridin-2-yl]-(1-ethyl-1H-pyrazol-4-yl)-amine]
< 1000	< 1000	CCn1cc(Nc2ccc(Cc3c[nH]c4ncnc(C)c34)c(F)n2)cn1 [Compound P-4013, (1-Ethyl-1H-pyrazol-4-yl)-[6-fluoro-5-(4-methyl-7H-pyrrolo[2,3-d]pyrimidin-5-ylmethyl)-pyridin-2-yl]-amine]
> 1000	< 1000	CCn1cc(Nc2ccc(Cc3c[nH]c4ncnc(OCCOC)c34)c(F)n2)cn1 [Compound P-4014, (1-Ethyl-1H-pyrazol-4-yl)-{6-fluoro-5-[4-(2-methoxy-ethoxy)-7H-pyrrolo[2,3-d]pyrimidin-5-ylmethyl]-pyridin-2-yl}-amine]
> 1000	< 1000	COCCOc1ncnc2[nH]cc(Cc3ccc(Nc4ccc(C)nc4)nc3F)c12 [Compound P-4015, {6-Fluoro-5-[4-(2-methoxy-ethoxy)-7H-pyrrolo[2,3-d]pyrimidin-5-ylmethyl]-pyridin-2-yl}-(6-methyl-pyridin-3-yl)-amine]
< 100	< 100	CCc1ccc(Nc2ccc(Cc3c[nH]c4ncnc(OCCOC)c34)c(F)n2)cn1 [Compound P-4016, (6-Ethyl-pyridin-3-yl)-{6-fluoro-5-[4-(2-methoxy-ethoxy)-7H-pyrrolo[2,3-d]pyrimidin-5-ylmethyl]-pyridin-2-yl}-amine]
